Assay results taken from patent US9102588B2, “Fungicide N-cycloalkyl-N-bicyclic-carboxamide derivatives” (priority 2007, dated 2015).

Experiment: logP
Format: physicochemical
Conditions: intermediate amines of formula (II)

Row | SMILES | logP
1 | c1ccc2c(c1)OCCC2NC1CC1 (stereo not shown) [Example 175] | 0.32
2 | CC1(C)CCC(NC2CC2)c2ccccc21 (racemic) [Example 178] | 1.26
3 | CC1(C)CC(NC2CC2)c2ccccc21 (stereo not shown) [Example 174] | 1.15
4 | COc1cc2c(cc1OC)C(NC1CC1)C(C)(C)CO2 (stereo not shown) [Example 167] | 1.22
5 | c1ccc2c(c1)SCCC2NC1CC1 (racemic) [Example 177] | 0.67
6 | Clc1ccc2c(c1)C(NC1CC1)CCO2 (stereo not shown) [Example 176] | 0.83
7 | CC1Cc2ccccc2C1NC1CC1 (stereo not shown) [Example 171] | 0.81
